Each compound was assayed against T1, androgen receptor (Homo sapiens, UniProt P10275) (assay: AR Antagonist Cell Assay (MMTV-luciferase reporter, DHT-induced)). Settings: MDA-MB453-MMTV clone 54-19 cells, 100 pM DHT, 17 hr.
T1 sequence (P10275 1-920 Q868H): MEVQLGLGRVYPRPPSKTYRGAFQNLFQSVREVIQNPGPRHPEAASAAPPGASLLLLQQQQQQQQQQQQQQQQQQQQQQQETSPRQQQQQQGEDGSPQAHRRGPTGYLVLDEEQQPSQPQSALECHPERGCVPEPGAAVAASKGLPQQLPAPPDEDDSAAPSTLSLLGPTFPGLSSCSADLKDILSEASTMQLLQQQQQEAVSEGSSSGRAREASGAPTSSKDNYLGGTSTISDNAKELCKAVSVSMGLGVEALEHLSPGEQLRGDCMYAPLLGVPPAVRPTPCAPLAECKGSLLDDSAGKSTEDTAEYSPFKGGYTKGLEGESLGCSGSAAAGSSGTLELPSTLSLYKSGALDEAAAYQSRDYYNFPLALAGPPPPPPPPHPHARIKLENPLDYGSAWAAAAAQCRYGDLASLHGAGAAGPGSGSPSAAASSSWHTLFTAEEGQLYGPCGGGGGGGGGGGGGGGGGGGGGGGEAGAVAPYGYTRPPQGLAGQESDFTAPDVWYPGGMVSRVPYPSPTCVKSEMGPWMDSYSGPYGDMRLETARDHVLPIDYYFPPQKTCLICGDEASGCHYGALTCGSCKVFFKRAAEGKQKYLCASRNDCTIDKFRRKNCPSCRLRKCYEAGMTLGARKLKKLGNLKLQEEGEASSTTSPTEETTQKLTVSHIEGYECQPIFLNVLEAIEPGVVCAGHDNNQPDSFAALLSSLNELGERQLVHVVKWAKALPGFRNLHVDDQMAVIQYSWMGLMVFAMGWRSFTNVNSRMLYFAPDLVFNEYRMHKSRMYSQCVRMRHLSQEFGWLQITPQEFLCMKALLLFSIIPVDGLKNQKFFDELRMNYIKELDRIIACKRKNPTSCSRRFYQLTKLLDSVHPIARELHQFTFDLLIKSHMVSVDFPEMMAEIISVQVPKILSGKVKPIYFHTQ
Format: cell-based
Description: The compounds ability to antagonize the effects of androgen on the androgen receptor were determined in the protocol described immediately below.
Experimental Procedure for AR Antagonist Cell Assay
Cell line: MDA-MB453-MMTV clone 54-19. This cell line is a stable transfected cell line with MDA-MB453 cell background (human breast tumor cell expressing high level of androgen receptor). A MMTV minimal promoter containing ARE was first cloned in front of a firefly luciferase reporter gene. Then the cascade was cloned into transfection vector pUV120puro. Electroporation method was used for transfecting MDA-MB-453 cell. Puromycin resistant stable cell line was selected.
Cell Culture Media and Reagents:
Culture medium: DMEM (high glucose, Gibco cat #: 11960-044), 10% FBS, and 1% L-glutamine
Plating medium: DMEM (phenol red free), 10% charcoal treated HyClone serum, 1% L-glutamine
Assay medium: DMEM (phenol red free), 1% charcoal treated HyClone serum, 1% L-glutamine, and 1% penicillin/streptomycin
3× luciferase buffer: 2% beta-mercaptoethanol, 0.6% ATP, 0.0135% luciferine in cell lysis buffer
• 1. Cells are maintained in culture medium, splitting cells when they reach 80–90% confluence • 2. To test compounds, 10,000 cells/well are plated to opaque 96 cell culture plate in 100 ul/well plating medium, culture for overnight at 37° C. in cell culture incubator • 3. Carefully remove plating medium, then add 80 ul/well of pre-warmed assay medium, add 10 ul/well testing compound (final concentration at 10 uM or 1 uM), incubate at 37° C. for 30 minutes • 4. Add 10 ul/well freshly prepared DHT (final concentration at 100 pM) to each well, incubate at 37° C. for 17 hr (overnight) • 5. Add 50 ul/well 3× luciferase buffer, incubate at room temperature for 5 minutes, then count on Luminometer The fold induction over background by 100 pM DHT in the absence of testing compounds is standardized as 100% and experimental result is expressed as percentage of inhibition by testing compounds. TABLE3
Work on `O=c1cc(C(F)(F)F)c2cc(S(=O)(=O)NCCc3c[nH]c4ccccc34)ccc2o1` [Example 67, 2-Oxo-4-trifluoromethyl-2H-chromene-6-sulfonic acid [2-(1H-indol-3-yl)ethyl]amide] yielded an IC50 of over 10000 nM. `O=c1cc(C(F)(F)F)c2cc(S(=O)(=O)NCC3CCCCC3)ccc2[nH]1` [Example 123, 2-Oxo-4-trifluoromethyl-1,2-dihydroquinoline-6-sulfonic acidcyclohexylmethylamide] was tested, and the IC50 was 8510 nM. Compound `O=c1cc(C(F)(F)F)c2cc(S(=O)(=O)Nc3ccccc3Br)ccc2[nH]1` [Example 110, 2-Oxo-4-trifluoromethyl-1,2-dihydroquinoline-6-sulfonic acid(2-bromophenyl)amide] has an IC50 of over 10000 nM. For `CCN(Cc1ccccc1)S(=O)(=O)c1ccc2[nH]c(=O)cc(C(F)(F)F)c2c1` [Example 79, 2-Oxo-4-trifluoromethyl-1,2-dihydroquinoline-6-suifonic acidbenzylethylamide], the IC50 was 390 nM. `CC(C)N(C)S(=O)(=O)c1ccc2[nH]c(=O)cc(C(F)(F)F)c2c1` [Example 70, 2-Oxo-4-trifluoromethyl-1,2-dihydroquinoline-6-sulfonic acidisopropylmethylamide] was tested, and the IC50 was 550 nM. For `CCCCCN(CCO)S(=O)(=O)c1ccc2c(c1)c(C(F)(F)F)cc(=O)n2C` [Example 7, 1-Methyl-2-oxo-4-trifluoromethyl-1,2-dihydroquinoline-6-sulfonicacid (2-hydroxyethyl)-pentylamide], the IC50 was over 10000 nM. `CCCCN(CCCC)S(=O)(=O)c1ccc2[nH]c(=O)cc(C(F)(F)F)c2c1` [Example 68, 2-Oxo-4-trifluoromethyl-1,2-dihydroquinoline-6-sulfonic aciddibutylamide] showed an IC50 of 410 nM. Compound `Cc1ccc(NS(=O)(=O)c2ccc3c(c2)c(C(F)(F)F)cc(=O)n3C)cc1` [Example 14, 1-Methyl-2-oxo-4-trifluoromethyl-1,2-dihydroquinoline-6-sulfonicacid p-tolylamide] has an IC50 of 1030 nM. Compound `CCCCCN(CCO)S(=O)(=O)c1ccc2[nH]c(=O)cc(C(F)(F)F)c2c1` [Example 74, 2-Oxo-4-trifluoromethyl-1,2-dihydroquinoline-6-sulfonic acid(2-hydroxyethyl)-pentylamide] has an IC50 of 290 nM. With `O=c1cc(C(F)(F)F)c2cc(S(=O)(=O)NCc3ccccc3OC(F)F)ccc2[nH]1` [Example 151, 2-Oxo-4-trifluoromethyl-1,2-dihydroquinoline-6-sulfonic acid2-difluoromethoxybenzylamide] the IC50 was 730 nM. With `Cn1c(=O)cc(C(F)(F)F)c2cc(S(=O)(=O)NCCc3cccs3)ccc21` [Example 54, 1-Methyl-2-oxo-4-trifluoromethyl-1,2-dihydroquinoline-6-sulfonicacid (2-thiophen-2-ylethyl)amide] the IC50 was 5680 nM. For `Cn1c(=O)cc(C(F)(F)F)c2cc(S(=O)(=O)Nc3cccc(C(F)(F)F)c3)ccc21` [Example 39, 1-Methyl-2-oxo-4-trifluoromethyl-1,2-dihydroquinoline-6-sulfonicacid (3-trifluoromethylphenyl)-amide], the IC50 was 930 nM. `O=c1cc(C(F)(F)F)c2cc(S(=O)(=O)NCc3cc(C(F)(F)F)ccc3F)ccc2[nH]1` [Example 158, 2-Oxo-4-trifluoromethyl-1,2-dihydroquinoline-6-sulfonic acid2-fluoro-5-trifluoromethylbenzylamide] was tested, and the IC50 was 6610 nM. `O=c1cc(C(F)(F)F)c2cc(S(=O)(=O)NCc3ccc(F)cc3)ccc2[nH]1` [Example 129, 2-Oxo-4-trifluoromethyl-1,2-dihydroquinoline-6-sulfonic acid4-fluorobenzylamide] gave an IC50 of over 10000 nM. For `O=c1cc(C(F)(F)F)c2cc(S(=O)(=O)NCCc3c[nH]c4ccccc34)ccc2[nH]1` [Example 147, 2-Oxo-4-trifluoromethyl-1,2-dihydroquinoline-6-sulfonic acid[2-(1H-indol-3-yl)ethyl]amide], the IC50 was 260 nM. `N#Cc1cccc(NS(=O)(=O)c2ccc3[nH]c(=O)cc(C(F)(F)F)c3c2)c1` [Example 87, 2-Oxo-4-trifluoromethyl-1,2-dihydroquinoline-6-sulfonic acid(3-cyanophenyl)amide] showed an IC50 of 3550 nM. For `O=c1cc(C(F)(F)F)c2cc(S(=O)(=O)NCc3ccc(F)cc3Cl)ccc2[nH]1` [Example 140, 2-Oxo-4-trifluoromethyl-1,2-dihydroquinoline-6-sulfonic acid2-chloro-4-fluorobenzylamide], the IC50 was 5650 nM. With `CCCCN(CC)S(=O)(=O)c1ccc2[nH]c(=O)cc(C(F)(F)F)c2c1` [Example 69, 2-Oxo-4-trifluoromethyl-1,2-dihydroquinoline-6-sulfonic acidbutylethylamide] the IC50 was 200 nM. Compound `C[C@@H](NS(=O)(=O)c1ccc2[nH]c(=O)cc(C(F)(F)F)c2c1)c1ccccc1` [Example 125, 2-Oxo-4-trifluoromethyl-1,2-dihydroquinoline-6-sulfonic acid(1-phenylethyl)amide] has an IC50 of 2940 nM. `Cn1c(=O)cc(C(F)(F)F)c2cc(S(=O)(=O)Nc3ccc(CC#N)cc3)ccc21` [Example 21, 1-Methyl-2-oxo-4-trifluoromethyl-1,2-dihydroquinoline-6-sulfonicacid (4-cyanomethylphenyl)amide] gave an IC50 of 990 nM. Work on `O=c1cc(C(F)(F)F)c2cc(S(=O)(=O)Nc3cccc(CO)c3)ccc2[nH]1` [Example 91, 2-Oxo-4-trifluoromethyl-1,2-dihydroquinoline-6-sulfonic acid(3-hydroxymethylphenyl)amide] yielded an IC50 of 3130 nM. `Cc1cc(=O)oc2cc(NS(=O)(=O)c3ccc4c(c3)c(C(F)(F)F)cc(=O)n4C)ccc12` [Example 40, 1-Methyl-2-oxo-4-trifluoromethyl-1,2-dihydroquinoline-6-sulfonic(4-methyl-2-oxo-2H-chromen-7-yl)amide] gave an IC50 of over 10000 nM. `O=c1cc(C(F)(F)F)c2cc(S(=O)(=O)NCc3c(F)cccc3F)ccc2[nH]1` [Example 139, 2-Oxo-4-trifluoromethyl-1,2-dihydroquinoline-6-sulfonic acid2,6-difluorobenzylamide] showed an IC50 of 2980 nM. `C#Cc1ccc(NS(=O)(=O)c2ccc3[nH]c(=O)cc(C(F)(F)F)c3c2)cc1` [Example 86, 2-Oxo-4-trifluoromethyl-1,2-dihydroquinoline-6-sulfonic acid(4-ethynylphenyl)amide] was tested, and the IC50 was 450 nM. For `O=c1cc(C(F)(F)F)c2cc(S(=O)(=O)Nc3ccc(F)cc3)ccc2[nH]1` [Example 84, 2-Oxo-4-trifluoromethyl-1,2-dihydroquinoline-6-sulfonic acid(4-fluorophenyl)amide], the IC50 was 7080 nM. With `Cn1nc(C(C)(C)C)cc1NS(=O)(=O)c1ccc2[nH]c(=O)cc(C(F)(F)F)c2c1` [Example 104, 2-Oxo-4-trifluoromethyl-1,2-dihydroquinoline-6-sulfonic acid(5-tert-butyl-2-methyl-2H-pyrazol-3-yl)amide] the IC50 was over 10000 nM. Work on `Cn1c(=O)cc(C(F)(F)F)c2cc(S(=O)(=O)Nc3cccc(OC(F)(F)F)c3)ccc21` [Example 41, 1-Methyl-2-oxo-4-trifluoromethyl-1,2-dihydroquinoline-6-sulfonicacid (3-trifluoromethoxy-phenyl)amide] yielded an IC50 of 3860 nM. For `O=c1cc(C(F)(F)F)c2cc(S(=O)(=O)NC3CCCC3)ccc2[nH]1` [Example 120, 2-Oxo-4-trifluoromethyl-1,2-dihydroquinoline-6-sulfonic acidcyclopentylamide], the IC50 was 820 nM. With `Cn1c(=O)cc(C(F)(F)F)c2cc(S(=O)(=O)Nc3cc4ccccc4cn3)ccc21` [Example 32, 1-Methyl-2-oxo-4-trifluoromethyl-1,2-dihydroquinoline-6-sulfonicacid isoquinolin-3-ylamide] the IC50 was over 10000 nM.
